Source: the SangsterLogP compilation

How the values were obtained:
[1] = method code SF-AS, from DOI: 10.1016/s0960-894x(99)00527-2, PMID: 10571171; conditions: pH 7.0
[2] = not given; remark: listed apart in the source
[3] = method code SF-AS, from DOI: 10.1021/jm00371a014, PMID: 6716401; conditions: pH 7.4
[4] = not given; remark: listed apart in the source
[5] = method code SF-RC, from DOI: 10.1002/jps.2600770619, PMID: 3171939; conditions: pH 2.0
[6] = method code SF, from DOI: 10.1016/0378-5173(85)90077-8
[7] = not given; remark: listed apart in the source
[8] = method code SF-GLC, from DOI: 10.1021/je990149u
[9] = method code SF-HPLC, from DOI: 10.1211/0022357001774101, PMID: 10813545
[10] = method code SF-RC, from DOI: 10.1016/j.nucmedbio.2014.03.016, PMID: 24776092; conditions: pH 7.4
[11] = method code SF-AS, from DOI: 10.1002/qua.560100722; conditions: pH 7.8
[12] = method code SF-AS, from DOI: 10.1248/cpb.25.1350, PMID: 890858; conditions: pH 6.5
[13] = method code SF-HPLC, from Huang, H.; YU, D.; Wang, C.; Shi, S.; Shi, J. (2014). Determination of apparent oil/water partition coefficient of spinosin. Yaowu fenxi zazhi, 34(3)497-499.; conditions: pH 7.4
[14] = method code SF-AS, from DOI: 10.1562/0031-8655(2002)076<0127:dlbcop>2.0.co;2, PMID: 12194207; conditions: pH 7.3
[15] = method code SF-RC, from DOI: 10.1016/0378-5173(86)90124-9
[16] = method code SF, from DOI: 10.1016/s0928-0987(97)10019-7; conditions: pH 7.4
[17] = method code SF-RC, from PMID: 3346819; conditions: pH 7.4
[18] = pH 7.4
[19] = method code SF-HPLC, from PMID: 3219139; conditions: pH 9.0
[20] = not given; remark: listed apart in the source
[21] = method code SF-HPLC, from PMID: 8932441; conditions: pH 7.4
[22] = method code SF, from DOI: 10.1021/jm00079a001, PMID: 1732531; conditions: pH 7.4
[23] = not given; remark: listed apart in the source
[24] = method code SF-RC, from PMID: 9639294; conditions: pH 7.5
[25] = method code SF-AS, from DOI: 10.1562/0031-8655(2003)0780411sacotn2.0.co2, PMID: 14626671; conditions: pH 6.8

With `CCCN(CCC)C(=O)Cc1c(-c2ccc(OC(=O)NCCc3ccc(O)c(O)c3)cc2)nc2ccc(Cl)cn12` the logP was 4.3.

For `O=C(NCCN(CCNC(=O)c1ccc2cccnc2c1O)CCNC(=O)c1ccc2cccnc2c1O)c1ccc2cccnc2c1O`, the logD [1] was 1.

With `CO[C@@H](CC[C@H](C)[C@H]1O[C@@]23CC(OC(=O)C[C@H]([C@@H](C)O)OC(=O)C[C@](O)(O2)[C@H](C)CC3(C)C)[C@@H]1C)c1cc(O)ccc1Br` the logP [2] was 5.4.

With `COc1cccc2c1C(=N)c1c(O)c3c(c(O)c1C2=O)C[C@](O)(C(=O)CO)C[C@@H]3O[C@H]1C[C@@H](N2CCOC[C@@H]2C#N)[C@@H](O)[C@@H](C)O1` the logD [3] was 1.97.

Compound `CC1(C)CC[C@]2(C(=O)O)CC[C@]3(C)C(=CC[C@@H]4[C@@]5(C)CC[C@H](O)C(C)(C)[C@@H]5CC[C@]43C)[C@@H]2C1` has a logP [4] of 3.63.

In the case of `CC1(C)C(OC(=O)CCC(=O)O)CC[C@@]2(C)[C@H]1CC[C@]1(C)[C@H]2C(=O)C=C2[C@@H]3C[C@@](C)(C(=O)O)CC[C@]3(C)CC[C@]21C` (stereo partly specified), the logD [5] is reported as 2.81.

With `CCCCCCCC(=O)OCC(=O)[C@@]1(O)CC[C@H]2[C@@H]3CCC4=CC(=O)CC[C@]4(C)[C@H]3C(=O)C[C@@]21C` the logP [6] was 4.22.

In the case of `N#CC(CCN1CCC(C(N)=O)(N2CCCCC2)CC1)(c1ccccc1)c1ccccc1`, the logP [7] is reported as 3.91.

Compound `CCCCCCCCCCOC(=O)c1ccccc1C(=O)OCCCCCCCCCC` has a logP [8] of 9.05.

Work on `C[C@]12CC[C@H]3[C@@H](CCC4=CC(=O)CC[C@@]43C)[C@@H]1CC[C@@H]2OC(=O)CCC1CCCC1` yielded a logP [9] of 4.89.

`C[C@H](CCC(=O)NCc1cn(CCF)nn1)[C@H]1CC[C@H]2[C@@H]3[C@H](O)C[C@@H]4C[C@H](O)CC[C@]4(C)[C@H]3CC[C@]12C` gave a logD [10] of 1.61.

With `COc1cccc2c1C(=O)c1c(O)c3c(c(O)c1C2=O)CC(O)(C(C)=O)CC3OC1CC(NC(=O)CNC(=O)CN(C)C)C(O)C(C)O1` (stereo unspecified) the logD [11] was 1.12.

Compound `CCC(=O)OCc1c(CSSCc2cnc(C)c(OC(=O)CC)c2COC(=O)CC)cnc(C)c1OC(=O)CC` has a logD [12] of 2.68.

In the case of `COc1cc2oc(-c3ccc(O)cc3)cc(=O)c2c(O)c1[C@@H]1O[C@H](CO)[C@@H](O)[C@H](O)[C@H]1O[C@@H]1O[C@H](CO)[C@@H](O)[C@H](O)[C@H]1O`, the logD [13] is reported as 0.56.

With `COC(=O)CCC1=C(C)c2cc3cc(C)c(cc4cc(C)c(cc5nc(cc1n2)C(CCC(=O)OC)=C5C)[nH]4)[nH]3` the logD [14] was 3.95.

In the case of `CCCCC[C@H](O)/C=C/[C@@H]1[C@@H](C/C=C\CCCC(=O)OCc2ccccc2)[C@@H](O)C[C@H]1O`, the logP [15] is reported as 4.11.

`CC(C)(C)S(=O)(=O)C[C@@H](Cc1ccccc1)C(=O)N[C@@H](Cc1cnc[nH]1)C(=O)N[C@@H](CC1CCCCC1)[C@@H](O)[C@@H](O)C1CC1` showed a logD [16] of 2.75.

With `CC(CNC(=O)c1ccccc1)C(=O)OCC(=O)C12OC(C)(C)OC1CC1C3CCC4=CC(=O)C=CC4(C)C3(F)C(O)CC12C` (stereo unspecified) the logD [17] was 2.3.

Compound `CCN1CC(C(O)C(CC2CCCCC2)NC(=O)C(Cc2cscn2)NC(=O)C(CC(=O)N2CCOCC2)Cc2ccccc2)OC1=O` (stereo unspecified) has a logD [18] of 2.83.

With `COC(=O)C1=C(C)NC(C)=C(C(=O)O[C@@H]2CCCN(Cc3ccccc3)C2)[C@@H]1c1cccc([N+](=O)[O-])c1` (relative stereo) the logD [19] was 3.47.

Compound `CC(C)(C)NC(=O)[C@@H]1C[C@@H]2CCCC[C@@H]2CN1C[C@@H](O)[C@H](Cc1ccccc1)NC(=O)[C@H](CC(N)=O)NC(=O)c1ccc2ccccc2n1` has a logP [20] of 3.

`CCCCOC(=O)NS(=O)(=O)c1ccccc1-c1ccc(Cn2c(CCC)nc(CC)c2C(C)=O)c(F)c1` showed a logD [21] of 1.72.

For `C=CCC(NC(=O)C(Cc1ccccc1)NS(=O)(=O)N1CCOCC1)C(=O)NC(CC1CCCCC1)C(=O)C(F)(F)C(=O)NCC(C)CC` (stereo unspecified), the logD [22] was 4.63.

`COc1ccc(CCN(C)CCCC(C#N)(c2cc(OC)c(OC)c(OC)c2)C(C)C)cc1OC` (stereo unspecified) showed a logP [23] of 3.71.

`CCOC(=O)C1=C(COCCOCCNC(=O)C(C)(C)C)NC(C)=C(C(=O)OC)C1c1cccc(Cl)c1Cl` (stereo unspecified) gave a logD [24] of 2.12.

Compound `COc1c(O)c2c(=O)cc(OC)c3c4c(OC)cc(=O)c5c(O)c(NCCN6CCOCC6)c6c(c(c1C(C(C)=O)=C(C)C6)c23)c54` has a logD [25] of 1.15.
